The test system of assay [1] is A/T rich, G/C rich and mixed sequence DNA oligonucleotides. Description: SPA direct binding assay, sequence preference over panel of indicator oligonucleotides. An excerpt:
This technology can be applied to studies of ligand binding as disclosed herein. […] These beads are impregnated with scintillant. The second oligonucleotide is labeled with a weak β-emitter, such as ^3H or ^33P. The radioactive second oligonucleotide is mixed with a solution of the beads under conditions at which the first and second oligonucleotides exist primarily as single strands, as described above. The signal will thus be low, as the oligonucleotides are non-hybridized. When ligand is added, the duplex form is stabilized, and the increased proximity of the radioactive isotope (e.g., ^3H, ^33P) in the second oligonucleotide causes the bead to which the first oligonucleotide is bound to scintillate. A signal thus indicates the presence of an effective binding ligand molecule; test sequences giving higher signals indicate the relative preference for different sequences.
Indicator oligonucleotides as shown in Table 1 were used in this assay, as shown in Table II and FIGS. 4A-E. One strand of each duplex was labeled with biotin at the 5′-end, and the complementary strand was 3′-labeled with ^33P. The two complementary strands were incubated with streptavidin-coated SPA beads (Amersham, Arlington Heights, Ill.) at room temperature in a buffer containing 20 mM HEPES, pH 7.5, 0.1 mM EDTA, and 20 mM NaCl. In the absence of ligand, and under these conditions, the oligonucleotides exist in single-stranded conformation. As a result, the oligonucleotide containing the radioactive label is not in close proximity to the SPA bead, and the light given off by the beads is low, i.e., at background. As a duplex-stabilizing ligand is added, the radioactive ^33P is brought into close proximity to the SPA bead, and the light emitted from the SPA bead increases.

Assay [2] relates to 5′-CTTTTTTTTT-3′ (SEQ ID NO: 1) F/Q indicator pair. Description: Fluorescence quenching direct binding assay, A/T rich DNA. The settings on record: increasing netropsin; tRNA added; room temperature. On the procedure: The specific examples described in this section employ fluorescence quenching as the detection system. In these examples, because conditions are adjusted to maintain the oligonucleotides in single-stranded form in the absence of the ligand, the assay starts with the system at a high or maximum level of fluorescence, and fluorescence generally decreases, depending on binding affinity, as the ligand is added.
In the Figure legends, RNA oligonucleotides are denoted by an “r” at the beginning of the sequence, and single stranded controls by “ss” at the end of the sequence. These single stranded sequence, are used alone in control experiments, which thus employ only an “F” strand and no complementary quenching strand. Any quenching of fluorescence that is not due to hybridization can thus be acounted for. Maximum quenching expected on complete hybridization of these oligonucleotides is 85-90%; therefore some signal remains after complete hybridization. […]
According to the general method described above, increasing amounts of netropsin or actinomycin, respectively, were added to mixtures of selected F/Q indicator oligonucleotide pairs, whose sequences are shown in the legends of FIGS. 1 and 3. […] The Figures show the level of fluorescence observed, relative to a control having no added drug, for each indicator pair (or single strand) as the level of added drug was increased. […]

The subject of assay [3] is F/Q indicator duplex of SEQ ID NO: 75 and SEQ ID NO: 76. Description: Kinetic strand displacement assay (fluorescence quenching). It is filed as binding. From the text:
This version of the assay is based on the displacement of a shorter strand within an indicator duplex by a longer strand. […] Again, a duplex of first and second sequences, as described above, is used, but in this assay, the strands differ in length, thus creating a single stranded overhang region. In a fluorescence quenching assay format, for example, the “F” strand is generally longer than the “Q” strand. In most cases, a minimum overhang region of about 4-20 nucleotides is effective to initiate strand displacement. Because a longer region will increase the rate of displacement, and it is generally desirable in the assay to reduce the rate of displacement, so as to facilitate measurement, this length of 4-20 nucleotides is generally preferred. A length of 5-7 nucleotides is particularly preferred.
The first and second strands are allowed to form a duplex in the absence of the ligand. In the present example, the “F” and “Q” groups are thus in proximity, giving a minimum level (when Q is a quenching group) of fluorescence. The displacing strand is added, and the rate of displacement, as indicated by an increase (or other change) in fluorescence over time, is observed (see FIG. 2). The experiment is then repeated in the presence of increasing amounts of ligand. A strongly binding ligand will stabilize the initial duplex and thus slow the rate of displacement. It is also expected that a ligand binding closer to the overhang site will also have a greater effect on inhibiting displacement.
The displacing strand, having SEQ ID NO: 77 (Table VI), is added, and the increase in fluorescence is observed over time. […] About 0.08 μM drug was effective to detectably slow the rate of displacement, and at 1.25-2.5 μM, the increase at 2 hrs was reduced to about 40%.
A mixture was formed of 60 nM of a fluorescein labeled 28-nucleotide strand having SEQ ID NO: 75 (Table VI) and 90 nM of a Dabcyl™-labeled 21-nucleotide quenching strand (SEQ ID NO: 76) in a buffer containing 20 mM HEPES, pH 7.5, 0.1 mM EDTA, and 30 mM NaCl. The control experiment contained no added drug; for subsequent experiment, increasing amounts of netropsin were added. To start the displacement reaction, the displacing strand (SEQ ID NO: 77) was added at concentrations of 35 nM to 60 nM. The fluorescence of the system was then monitored every 5 minutes for 90 to 120 minutes.
The initial rate of the displacement reaction was calculated from plots of fluorescence vs. time as the slope of the fluorescence curve from 0 to 60 minutes.
Additional experiments were carried out in which specific, unlabeled DNA competitor duplexes, whose sequences are shown in Table VII, were added to the assay mixture.

For `Cn1cc(NC(=O)c2cc(NC(=O)c3cc(NC=O)cn3C)cn2C)cc1C(=O)NCCC(=N)N` [Distamycin, distamycin], in assay [1] (A/T rich 5′-AAAATAATAAAG, G/C rich 5′-GGCGCGG, mixed 5′-GTTGCAGATC, increasing drug), the “sequence preference of binding (FIGS. 4A-E)” value is “preference for A/T-rich and mixed sequences”. In addition, the “duplex stabilization preference (Table II)” value in assay [1] (G/C-rich SEQ 6, A/T-rich SEQ 2, mixed SEQ 12 duplexes, 0, 100, 500 nM drug) was “preferentially stabilizes the A/T-rich duplex and the mixed duplex”.

Consider `Cn1cc(NC(=O)c2cc(NC(=O)CN=C(N)N)cn2C)cc1C(=O)NCCC(=N)N` [Netropsin, netropsin], for which the “binding (decrease in fluorescence, FIG. 3A)” value in assay [2] is on record as “strongly prefers”. Besides, the “effect of unlabeled competitor duplex on rate of displacement in presence of drug (FIG. 16)” value in assay [3] (A/T rich competitor duplex SEQ ID NO: 78) was “rate of displacement is increased by increasing amounts of the A/T rich competitor duplex”. Also, in assay [3] (at 1.25-2.5 μM netropsin, about 175% in absence of drug), the “increase in fluorescence at 2 hrs” value is “about 40%”. Also, the “drug concentration effective to detectably slow the rate of displacement (FIG. 14)” value in assay [3] (displacing strand SEQ ID NO: 77) is reported as “About 0.08 μM”. Besides, in assay [3] (initial rate = slope 0 to 60 minutes), the “drug concentration giving notable decrease in initial rate of displacement (FIG. 15)” value is on record as “about 0.08 μM”.
